Source: the NIST ThermoML archive (doi:10.1016/j.fluid.2008.09.004)

Legend:
[1] = molar heat capacity at constant pressure; xn = mol fraction of the nth substance listed; conditions: 101 kPa, Liquid, Small sample (50 mg) DSC
[2] = xn = mol fraction of the nth substance listed; conditions: 101 kPa, Liquid, Vibrating tube method
[3] = excess molar enthalpy (molar enthalpy of mixing); xn = mol fraction of the nth substance listed; conditions: 303.15 K, 101 kPa, Liquid, Calvet calorimetry

CCCCCCn1cc[n+](C)c1.F[B-](F)(F)F [1-hexyl-3-methylimidazolium tetrafluoroborate] + CCO
Conditions | mass density, [2] [kg/m3] | molar heat capacity at constant pressure, [1] [J/K/mol]
293.15 K, x1 = 0.1052 | 904.3 | 152
293.15 K, x1 = 0.2011 | 969.7 | 184.5
293.15 K, x1 = 0.2832 | 1009.1 | 209.9
293.15 K, x1 = 0.3846 | 1045.5 | 240.4
293.15 K, x1 = 0.4943 | 1075.1 | 272.3
293.15 K, x1 = 0.5486 | 1086.6 | 288
293.15 K, x1 = 0.6882 | 1111.6 | 328.8
293.15 K, x1 = 0.7748 | 1124 | –
293.15 K, x1 = 0.7879 | – | 358.6
293.15 K, x1 = 0.7988 | 1127.1 | –
293.15 K, x1 = 0.8521 | 1133.6 | –
293.15 K, x1 = 0.8791 | – | 387.1
298.15 K, x1 = 0.1052 | 900.2 | 153.6
298.15 K, x1 = 0.2011 | 965.8 | 185.9
298.15 K, x1 = 0.2832 | 1005.2 | 211.4
298.15 K, x1 = 0.3846 | 1041.7 | 241.8
298.15 K, x1 = 0.4943 | 1071.4 | 273.8
298.15 K, x1 = 0.5486 | 1082.9 | 289.7
298.15 K, x1 = 0.6882 | 1108 | 330.9
298.15 K, x1 = 0.7748 | 1120.5 | –
298.15 K, x1 = 0.7879 | – | 360.8
298.15 K, x1 = 0.7988 | 1123.6 | –
298.15 K, x1 = 0.8521 | 1130.1 | –
298.15 K, x1 = 0.8791 | – | 389.4
303.15 K, x1 = 0.1052 | 896.2 | 155
303.15 K, x1 = 0.2011 | 961.8 | 187.3
303.15 K, x1 = 0.2832 | 1001.4 | 212.8
303.15 K, x1 = 0.3846 | 1037.9 | 243
303.15 K, x1 = 0.4943 | 1067.7 | 275.2
303.15 K, x1 = 0.5486 | 1079.3 | 291.3
303.15 K, x1 = 0.6882 | 1104.4 | 332.9
303.15 K, x1 = 0.7748 | 1117 | –
303.15 K, x1 = 0.7879 | – | 363
303.15 K, x1 = 0.7988 | 1120.1 | –
303.15 K, x1 = 0.8521 | 1126.6 | –
303.15 K, x1 = 0.8791 | – | 391.6
308.15 K, x1 = 0.1052 | 892.1 | 156.6
308.15 K, x1 = 0.2011 | 957.9 | 188.6
308.15 K, x1 = 0.2832 | 997.6 | 214.1
308.15 K, x1 = 0.3846 | 1034.2 | 244.4
308.15 K, x1 = 0.4943 | 1064 | 276.7
308.15 K, x1 = 0.5486 | 1075.6 | 293
308.15 K, x1 = 0.6882 | 1100.9 | 334.9
308.15 K, x1 = 0.7748 | 1113.5 | –
308.15 K, x1 = 0.7879 | – | 365
308.15 K, x1 = 0.7988 | 1116.6 | –
308.15 K, x1 = 0.8521 | 1123.1 | –
308.15 K, x1 = 0.8791 | – | 393.9
313.15 K, x1 = 0.1052 | 888 | 158.1
313.15 K, x1 = 0.2011 | 954 | 189.9
313.15 K, x1 = 0.2832 | 993.7 | 215.4
313.15 K, x1 = 0.3846 | 1030.4 | 245.7
313.15 K, x1 = 0.4943 | 1060.4 | 278.1
313.15 K, x1 = 0.5486 | 1072 | 294.6
313.15 K, x1 = 0.6882 | 1097.4 | 336.9
313.15 K, x1 = 0.7748 | 1110 | –
313.15 K, x1 = 0.7879 | – | 367.1
313.15 K, x1 = 0.7988 | 1113.1 | –
313.15 K, x1 = 0.8521 | 1119.7 | –
313.15 K, x1 = 0.8791 | – | 396.1
318.15 K, x1 = 0.1052 | 883.9 | 159.8
318.15 K, x1 = 0.2011 | 950 | 191.2
318.15 K, x1 = 0.2832 | 989.8 | 216.7
318.15 K, x1 = 0.3846 | 1026.7 | 247.1
318.15 K, x1 = 0.4943 | 1056.7 | 279.6
318.15 K, x1 = 0.5486 | 1068.4 | 296.2
318.15 K, x1 = 0.6882 | 1093.8 | 338.9
318.15 K, x1 = 0.7748 | 1106.5 | –
318.15 K, x1 = 0.7879 | – | 369
318.15 K, x1 = 0.7988 | 1109.6 | –
318.15 K, x1 = 0.8521 | 1116.2 | –
318.15 K, x1 = 0.8791 | – | 398.3

[3]
Conditions | excess molar enthalpy [kJ/mol]
x1 = 0.101 | 1.35
x1 = 0.2037 | 2.05
x1 = 0.3018 | 2.41
x1 = 0.3977 | 2.57
x1 = 0.4988 | 2.48
x1 = 0.6045 | 2.18
x1 = 0.6901 | 1.85
x1 = 0.7932 | 1.31
x1 = 0.8733 | 0.848
